Structures can show the parent of a compound that is named as a salt.
target: human TRPV4 (Homo sapiens (Human), UniProt Q9HBA0); assay: FLIPR assay for hTRPV4 expressed in BHK cells; format: cell-based; conditions: at least one set of experimental runs; TRPV4 FLIPR assay; read-out: average IC50
Experimental: FLIPR Assay for hTRPV4 Expressed in BHK Cells:
TRPV4 channel activation results in an influx of divalent and monovalent cations including calcium. The resulting changes in intracellular calcium were monitored using a calcium specific fluorescent dye Fluo-4 (MDS Analytical Technologies). BHK/AC9 cells transduced with BacMam virus expressing the human TRPV4 gene at a MOI of 78 were plated in a 384 well poly-D lysine coated plate (15,000 cells/well in 50 μL culture medium containing DMEM/F12 with 15 mM HEPES, 10% FBS, 1% Penicillin-Streptomycin and 1% L-glutamine). Cells were incubated for 24 hours at 37° C. and 5% CO2. Culture medium was then aspirated using a Tecan plate-washer and replaced with 20 μL/well of dye loading buffer: HBSS, 500 μM Brilliant Black (MDS Analytical Technologies), and 2 μM Fluo-4 AM. Dye loaded plates were then incubated in the dark at room temperature for 1˜1.5 hours.

Sequence of human TRPV4 (Q9HBA0 whole entry): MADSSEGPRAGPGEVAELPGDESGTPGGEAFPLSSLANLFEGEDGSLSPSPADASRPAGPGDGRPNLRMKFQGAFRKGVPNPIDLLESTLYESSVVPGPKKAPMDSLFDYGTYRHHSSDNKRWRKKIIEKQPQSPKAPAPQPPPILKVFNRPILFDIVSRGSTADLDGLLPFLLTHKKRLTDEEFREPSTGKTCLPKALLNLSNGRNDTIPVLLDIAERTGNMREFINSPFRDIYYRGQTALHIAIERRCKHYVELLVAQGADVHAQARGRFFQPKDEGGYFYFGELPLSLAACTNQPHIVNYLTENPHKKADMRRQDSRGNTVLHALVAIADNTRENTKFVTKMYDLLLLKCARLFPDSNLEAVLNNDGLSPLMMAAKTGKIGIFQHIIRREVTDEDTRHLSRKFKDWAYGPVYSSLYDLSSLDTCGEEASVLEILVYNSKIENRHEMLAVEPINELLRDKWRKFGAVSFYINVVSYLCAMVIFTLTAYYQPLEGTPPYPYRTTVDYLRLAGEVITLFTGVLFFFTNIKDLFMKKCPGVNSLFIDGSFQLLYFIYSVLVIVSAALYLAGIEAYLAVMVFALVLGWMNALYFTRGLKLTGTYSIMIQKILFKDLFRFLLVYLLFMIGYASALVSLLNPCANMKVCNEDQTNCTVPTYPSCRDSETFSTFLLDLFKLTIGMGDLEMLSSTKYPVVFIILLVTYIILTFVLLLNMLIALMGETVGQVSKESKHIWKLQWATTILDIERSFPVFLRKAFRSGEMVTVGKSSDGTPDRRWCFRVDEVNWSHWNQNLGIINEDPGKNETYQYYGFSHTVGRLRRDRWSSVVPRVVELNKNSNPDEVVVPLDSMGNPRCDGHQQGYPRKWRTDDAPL

Structure (SMILES) | IC50 [µM]
N#Cc1ccc(S(=O)(=O)N2C[C@H](S(=O)(=O)c3ccc(Cl)cn3)[C@](O)(CO)C2)c(Cl)c1 [Example 1, 3-chloro-4-(((3R,4S)-4-((5-chloropyridin-2-yl)sulfonyl)-3-hydroxy-3-(hydroxymethyl)pyrrolidin-1-yl)sulfonyl)benzonitrile] | 0.005

same assay, conditions: inhibition of Agonist Compound (EC80)-induced calcium signal; BHK/AC9 cells expressing human TRPV4; read-out: IC50

Structure (SMILES) | IC50 [µM]
N#Cc1ccc(S(=O)(=O)N2C[C@H](S(=O)(=O)c3ccc(C(F)(F)F)cc3)[C@](O)(CO)C2)c(C(F)F)c1 [Example 55, 3-(difluoromethyl)-4-(((3R,4S)-3-hydroxy-3-(hydroxymethyl)-4-((4-(trifluoromethyl)phenyl)sulfonyl)pyrrolidin-1-yl)sulfonyl)benzonitrile] | 0.0001 to 0.01
CCc1cc(C#N)ccc1S(=O)(=O)N1C[C@H](S(=O)(=O)c2ccc(Cl)cc2)[C@](O)(CO)C1 [Example 46, 4-(((3R,4S)-4-((4-chlorophenyl)sulfonyl)-3-hydroxy-3-(hydroxymethyl)pyrrolidin-1-yl)sulfonyl)-3-ethylbenzonitrile] | 0.01 to 0.1
N#Cc1ccc(S(=O)(=O)[C@H]2CN(S(=O)(=O)c3ccc(Cl)cc3Cl)C[C@]2(O)CO)cc1F [Example 75, 4-(((3S,4S)-1-((2,4-dichlorophenyl)sulfonyl)-4-hydroxy-4-(hydroxymethyl)pyrrolidin-3-yl)sulfonyl)-2-fluorobenzonitrile] | 0.0001 to 0.01
N#Cc1ccc(S(=O)(=O)N2C[C@H](S(=O)(=O)c3ccc(Cl)cn3)[C@](O)(CO)C2)c(Cl)c1 [Example 1, 3-chloro-4-(((3R,4S)-4-((5-chloropyridin-2-yl)sulfonyl)-3-hydroxy-3-(hydroxymethyl)pyrrolidin-1-yl)sulfonyl)benzonitrile] | 0.0001 to 0.01
O=S(=O)(c1ccc(Cl)cc1)[C@H]1CN(S(=O)(=O)c2ccc(Cl)cc2Cl)C[C@@]1(O)CO [Example 18, (3R,4S)-4-((4-chlorophenyl)sulfonyl)-1-((2,4-dichlorophenyl)sulfonyl)-3-(hydroxymethyl)pyrrolidin-3-ol] | 0.01 to 0.1
N#Cc1ccc(S(=O)(=O)N2C[C@H](S(=O)(=O)c3ccc(Cl)cc3)[C@](O)(CO)C2)c(F)c1 [Example 21, 4-(((3R,4S)-4-((4-chlorophenyl)sulfonyl)-3-hydroxy-3-(hydroxymethyl)pyrrolidin-1-yl)sulfonyl)-3-fluorobenzonitrile] | 0.01 to 0.1
N#Cc1ccc(S(=O)(=O)N2C[C@H](S(=O)(=O)c3ccc(Cl)cn3)[C@@]3(CNCCO3)C2)c(Cl)c1 [Example 129, 3-chloro-4-(((4S,5R)-4-((5-chloropyridin-2-yl)sulfonyl)-6-oxa-2,9-diazaspiro[4.5]decan-2-yl)sulfonyl)benzonitrile, Hydrochloride] | 0.01 to 0.1
N#Cc1ccc(S(=O)(=O)N2C[C@H](S(=O)(=O)c3ccc(Cl)cc3)[C@@](O)(CN)C2)cc1 [Example 127, 4-(((3R,4S)-3-(aminomethyl)-4-((4-chlorophenyl)sulfonyl)-3-hydroxypyrrolidin-1-yl)sulfonyl)benzonitrile] | 0.01 to 0.1
N#Cc1ccc(S(=O)(=O)[C@H]2CN(S(=O)(=O)c3cc(F)c(Cl)cc3Cl)C[C@]2(O)CO)cc1F [Example 9, 4-(((3S,4S)-1-((2,4-dichloro-5-fluorophenyl)sulfonyl)-4-hydroxy-4-(hydroxymethyl)pyrrolidin-3-yl)sulfonyl)-2-fluorobenzonitrile] | 0.01 to 0.1
COc1cc(Br)ccc1S(=O)(=O)N1C[C@H](S(=O)(=O)c2ccc(C#N)cc2)[C@](O)(CO)C1 [Example 52, 4-(((3S,4R)-1-((4-bromo-2-methoxyphenyl)sulfonyl)-4-hydroxy-4-(hydroxymethyl)pyrrolidin-3-yl)sulfonyl)benzonitrile] | 0.01 to 0.1
Cc1cc(S(=O)(=O)[C@H]2CN(S(=O)(=O)c3ccc(C(F)(F)F)cc3Cl)C[C@@]2(O)CO)ccc1C#N [Example 100, 4-(((3S,4R)-1-((2-chloro-4-(trifluoromethyl)phenyl)sulfonyl)-4-hydroxy-4-(hydroxymethyl)pyrrolidin-3-yl)sulfonyl)-2-methylbenzonitrile] | 0.01 to 0.1
O=S(=O)(c1ccc(Cl)nc1)[C@H]1CN(S(=O)(=O)c2ccc(C(F)(F)F)cc2Cl)C[C@@]1(O)CO [Example 99, (3R,4S)-1-((2-chloro-4-(trifluoromethyl)phenyl)sulfonyl)-4-((6-chloropyridin-3-yl)sulfonyl)-3-(hydroxymethyl)pyrrolidin-3-ol] | 0.01 to 0.1
N#Cc1ccc(S(=O)(=O)N2C[C@H](S(=O)(=O)c3ccc(C(F)(F)F)cn3)[C@](O)(CO)C2)c(Cl)c1 [Example 110, 3-chloro-4-(((3R,4S)-3-hydroxy-3-(hydroxymethyl)-4-((5-(trifluoromethyl)pyridin-2-yl)sulfonyl)pyrrolidin-1-yl)sulfonyl)benzonitrile] | 0.01 to 0.1
N#Cc1ccc(S(=O)(=O)[C@H]2CN(S(=O)(=O)c3ccc(Br)cc3C(F)(F)F)C[C@@]2(O)CO)cc1 [Example 30, 4-(((3S,4R)-1-((4-bromo-2-(trifluoromethyl)phenyl)sulfonyl)-4-hydroxy-4-(hydroxymethyl)pyrrolidin-3-yl)sulfonyl)benzonitrile] | 0.0001 to 0.01
CCc1ccc(S(=O)(=O)[C@H]2CN(S(=O)(=O)c3ccc(C#N)cc3Cl)C[C@@]2(O)CO)cc1 [Example 104, 3-chloro-4-(((3R,4S)-4-((4-ethylphenyl)sulfonyl)-3-hydroxy-3-(hydroxymethyl)pyrrolidin-1-yl)sulfonyl)benzonitrile] | 0.01 to 0.1
N#Cc1ccc(S(=O)(=O)N2C[C@H](S(=O)(=O)c3ccc(C(F)(F)F)cn3)[C@](O)(CO)C2)c(OC2CC2)c1 [Example 61, 3-cyclopropoxy-4-(((3R,4S)-3-hydroxy-3-(hydroxymethyl)-4-((5-(trifluoromethyl)pyridin-2-yl)sulfonyl)pyrrolidin-1-yl)sulfonyl)benzonitrile] | 0.01 to 0.1
N#Cc1ccccc1S(=O)(=O)N1C[C@H](S(=O)(=O)c2ccc(Cl)cc2)[C@](O)(CO)C1 [Example 47, 2-(((3R,4S)-4-((4-chlorophenyl)sulfonyl)-3-hydroxy-3-(hydroxymethyl)pyrrolidin-1-yl)sulfonyl)benzonitrile] | 0.01 to 0.1
O=S(=O)(c1ccc(Cl)cc1)[C@H]1CN(S(=O)(=O)c2ccc(Cl)cc2C(F)F)C[C@@]1(O)CO [Example 65, (3R,4S)-1-((4-chloro-2-(difluoromethyl)phenyl)sulfonyl)-4-((4-chlorophenyl)sulfonyl)-3-(hydroxymethyl)pyrrolidin-3-ol] | 0.01 to 0.1
O=S(=O)(c1ccc(Cl)cc1)[C@H]1CN(S(=O)(=O)c2ccc(C(F)(F)F)cc2Cl)C[C@@]1(O)CO [Example 97, (3R,4S)-1-((2-chloro-4-(trifluoromethyl)phenyl)sulfonyl)-4-((4-chlorophenyl)sulfonyl)-3-(hydroxymethyl)pyrrolidin-3-ol] | 0.01 to 0.1
N#Cc1ccc(S(=O)(=O)N2C[C@H](S(=O)(=O)c3ccc(C#N)c(F)c3)[C@@](O)(CO)C2)c(Cl)c1 [Example 3, 4-(((3S,4S)-1-((2-chloro-4-cyanophenyl)sulfonyl)-4-hydroxy-4-(hydroxymethyl)pyrrolidin-3-yl)sulfonyl)-2-fluorobenzonitrile] | 0.0001 to 0.01
Cc1cc(C(F)(F)F)ccc1S(=O)(=O)N1C[C@H](S(=O)(=O)c2ccc(C#N)cc2)[C@](O)(CO)C1 [Example 28, 4-(((3S,4R)-4-hydroxy-4-(hydroxymethyl)-1-((2-methyl-4-(trifluoromethyl)phenyl)sulfonyl)pyrrolidin-3-yl)sulfonyl)benzonitrile] | 0.01 to 0.1
O=S(=O)(c1ccc(C(F)(F)F)cn1)[C@H]1CN(S(=O)(=O)c2ccc(Cl)cc2Cl)C[C@@]1(O)CO [Example 116, (3R,4S)-1-((2,4-dichlorophenyl)sulfonyl)-3-(hydroxymethyl)-4-((5-(trifluoromethyl)pyridin-2-yl)sulfonyl)pyrrolidin-3-ol] | 0.01 to 0.1
O=S(=O)(c1ccc(F)cc1)[C@H]1CN(S(=O)(=O)c2ccc(Cl)cc2Cl)C[C@@]1(O)CO [Example 102, (3R,4S)-1-((2,4-dichlorophenyl)sulfonyl)-4-((4-fluorophenyl)sulfonyl)-3-(hydroxymethyl)pyrrolidin-3-ol] | 0.01 to 0.1
N#Cc1ccc(S(=O)(=O)[C@H]2CN(S(=O)(=O)c3ccc(F)cc3Cl)C[C@]2(O)CO)cc1F [Example 5, 4-(((3S,4S)-1-((2-chloro-4-fluorophenyl)sulfonyl)-4-hydroxy-4-(hydroxymethyl)pyrrolidin-3-yl)sulfonyl)-2-fluorobenzonitrile] | 0.01 to 0.1
N#Cc1cc(Cl)ccc1S(=O)(=O)N1C[C@H](S(=O)(=O)c2ccc(C(F)(F)F)nc2)[C@](O)(CO)C1 [Example 40, 5-chloro-2-(((3R,4S)-3-hydroxy-3-(hydroxymethyl)-4-((6-(trifluoromethyl)pyridin-3-yl)sulfonyl)pyrrolidin-1-yl)sulfonyl)benzonitrile] | 0.01 to 0.1
N#Cc1ccc(S(=O)(=O)[C@H]2CN(S(=O)(=O)c3ccc(C(F)F)cc3Cl)C[C@@]2(O)CO)cc1 [Example 42, 4-(((3S,4R)-1-((2-chloro-4-(difluoromethyl)phenyl)sulfonyl)-4-hydroxy-4-(hydroxymethyl)pyrrolidin-3-yl)sulfonyl)benzonitrile] | 0.01 to 0.1
N#Cc1c(F)cc(S(=O)(=O)[C@H]2CN(S(=O)(=O)c3ccc(C(F)(F)F)cc3Cl)C[C@@]2(O)CO)cc1F [Example 91, 4-(((3S,4R)-1-((2-chloro-4-(trifluoromethyl)phenyl)sulfonyl)-4-hydroxy-4-(hydroxymethyl)pyrrolidin-3-yl)sulfonyl)-2,6-difluorobenzonitrile] | 0.01 to 0.1
N#Cc1ccc(S(=O)(=O)[C@H]2CN(S(=O)(=O)c3ccccc3Cl)C[C@]2(O)CO)cc1F [Example 4, 4-(((3S,4S)-1-((2-chlorophenyl)sulfonyl)-4-hydroxy-4-(hydroxymethyl)pyrrolidin-3-yl)sulfonyl)-2-fluorobenzonitrile] | 0.01 to 0.1

From patent US11260049B2, “TRPV4 antagonists” (GlaxoSmithKline Intellectual Property (No. 2) Limited, priority 2016, dated 2022)
